Target: T1, TPM3-TRKA fusion protein (Homo sapiens, UniProt P04629)
T1 construct: The resulted chimeric proteins always retain the kinase domain of TRK proteins; TPM3 (fusion partner, N-terminal part of tropomyosin alpha-3, P06753); endogenous in cells; host or cells: KM12 colon cancer cells; the other entry of the earlier key: TPM3 (P06753, Tropomyosin alpha-3 chain)
Assay: TPM3-TRKA fusion protein levels in KM12 cells (Western blot)
Format: cell-based
Settings: 16 h; TPM3-TRKA degradation in KM12 cells at 10 nM compound, category of percentage degradation; read-out: Degradation (at 10 nM)
Experimental: KM12 cells were treated with DMSO or indicated compounds at 100 nM for 16 hours.
KM12 cells were treated with DMSO or indicated compounds at 0. 1 nM, 1 nM or 10 nM for 16 hours.
KM12 cells were treated with DMSO or indicated compounds at various concentrations for 16 hours.
KM12 cells were treated with DMSO or indicated compounds at various concentrations for 4 hours.
KM12 cells (a cancer model comprising a colon cancer cell line) were treated with DMSO or indicated compounds at various concentrations for 4 hours.
KM12 cells were treated with heterobifunctional compounds or their corresponding control compounds at 10 nM or 100 nM for 16 hours.
KM12 cells were treated with heterobifunctional compounds or their corresponding control compounds at 0.4-30 nM for 8-16 hours. […] Cells were authenticated using the short tandem repeat (STR) assays. […] Stable cell lines were established by lentivirus transduction, selected and maintained in medium containing 1 μg/mL puromycin (Beyotime Biotechnology).
Cultured cells were washed with cold PBS once and lysed in cold RIPA buffer supplemented with protease inhibitors and phosphatase inhibitors (Beyotime Biotechnology). The solutions were then incubated at 4° C. for 30 minutes with gentle agitation to fully lyse cells. For tumor tissues, tumors were cut into small pieces, milled with cold RIPA buffer using a mechanical homogenizer and lysed for 1 hour at 4° C. Cell lysates were centrifuged at 13,000 rpm for 10 minutes at 4° C. and pellets were discarded. Total protein concentrations in the lysates were determined by BCA assays (Beyotime Biotechnology). Cell lysates were mixed with Laemmli loading buffer to 1× and heated at 99° C. for 5 min. Proteins were resolved on SDS-PAGE and visualized by chemiluminescence. Images were taken by a ChemiDoc MP Imaging system (Bio-Rad). Protein bands were quantitated using the software provided by Bio-Rad.

T1 sequence (P04629 with tags, fused parts or gaps): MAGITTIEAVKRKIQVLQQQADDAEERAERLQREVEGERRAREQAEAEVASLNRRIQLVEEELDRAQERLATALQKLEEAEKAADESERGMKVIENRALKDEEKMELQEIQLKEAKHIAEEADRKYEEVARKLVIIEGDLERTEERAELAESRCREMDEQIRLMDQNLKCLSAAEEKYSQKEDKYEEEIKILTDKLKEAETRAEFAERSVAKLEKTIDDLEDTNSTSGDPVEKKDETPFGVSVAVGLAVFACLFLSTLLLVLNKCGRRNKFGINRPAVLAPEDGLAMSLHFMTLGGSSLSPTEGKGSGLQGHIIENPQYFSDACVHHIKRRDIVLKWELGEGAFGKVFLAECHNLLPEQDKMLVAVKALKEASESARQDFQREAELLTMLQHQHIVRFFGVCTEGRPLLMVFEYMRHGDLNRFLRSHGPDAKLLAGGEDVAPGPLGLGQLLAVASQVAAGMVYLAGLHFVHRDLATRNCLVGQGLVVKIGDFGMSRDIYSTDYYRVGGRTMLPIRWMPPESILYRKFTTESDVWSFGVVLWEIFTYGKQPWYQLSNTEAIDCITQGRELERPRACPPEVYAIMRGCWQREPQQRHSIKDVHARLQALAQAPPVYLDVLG

| SMILES | percent degradation of TPM3-TRKA protein at 0.01 µM |
| --- | --- |
| O=C1CCC(N2C(=O)c3cccc(NCCCCCCC(=O)N4CCN(c5cccc(-c6cnc7ccc(N8CCC[C@@H]8c8cccc(F)c8)nn67)n5)CC4)c3C2=O)C(=O)N1 (stereo partly drawn) [CPD-009, 2-(2,6-Dioxopiperidin-3-yl)-4-((7-(4-(6-(6-((R)-2-(3-fluorophenyl)pyrrolidin-1-yl)imidazo[1,2-b]pyridazin-3-yl)pyridin-2-yl)piperazin-1-yl)-7-oxoheptyl)amino) isoindoline-1,3-dione] | 50 to 80% |
| O=C1CCC(N2C(=O)c3cccc(NCCCC(=O)N4CCN(c5cccc(-c6cnc7ccc(N8CCC[C@@H]8c8cccc(F)c8)nn67)n5)CC4)c3C2=O)C(=O)N1 (stereo partly drawn) [CPD-013, 2-(2,6-Dioxopiperidin-3-yl)-4-((4-(4-(6-(6-((R)-2-(3-fluorophenyl)pyrrolidin-1-yl)imidazo[1,2-b]pyridazin-3-yl)pyridin-2-yl)piperazin-1-yl)-4-oxobutyl)amino) isoindoline-1,3-dione] | > 80% |
| O=C1CCC(N2C(=O)c3cccc(NCCCCC(=O)N4CCN(c5cccc(-c6cnc7ccc(N8CCC[C@@H]8c8cccc(F)c8)nn67)n5)CC4)c3C2=O)C(=O)N1 (stereo partly drawn) [CPD-014, 2-(2,6-Dioxopiperidin-3-yl)-4-((5-(4-(6-(6-((R)-2-(3-fluorophenyl)pyrrolidin-1-yl)imidazo[1,2-b]pyridazin-3-yl)pyridin-2-yl)piperazin-1-yl)-5-oxopentyl)amino) isoindoline-1,3-dione] | > 80% |
| O=C1CCC(N2C(=O)c3cccc(NCCCCCC(=O)N4CCN(c5cccc(-c6cnc7ccc(N8CCC[C@@H]8c8cccc(F)c8)nn67)n5)CC4)c3C2=O)C(=O)N1 (stereo partly drawn) [CPD-015, 2-(2,6-Dioxopiperidin-3-yl)-4-((6-(4-(6-(6-((R)-2-(3-fluorophenyl)pyrrolidin-1-yl)imidazo[1,2-b]pyridazin-3-yl)pyridin-2˜yl)piperazin-1-yl)-6-oxohexyl)amino) isoindoline-1,3-dione] | > 80% |

Results, then the compound that gave them:

| percent degradation of TPM3-TRKA protein at 0.01 µM | SMILES |
| --- | --- |
| < 50% | Cc1ncsc1-c1ccc(CNC(=O)[C@@H]2C[C@@H](O)CN2C(=O)[C@@H](NC(=O)CCCCCCCCC(=O)N2CCN(c3cccc(-c4cnc5ccc(N6CCC[C@@H]6c6cccc(F)c6)nn45)n3)CC2)C(C)(C)C)cc1 [CPD-017, (28,4R)-1-((S)-2-(10-(4-(6-(6-((R)-2-(3-Fluorophenyl)pyrrolidin-1-yl)imidazo[1,2-b]pyridazin-3-yl)pyridin-2-yl)piperazin-1-yl)-10-oxodecanamido)-3,3-dimethylbutanoyl)-4-hydroxy-N-(4-(4-methylthiazol-S-yl)benzyl)pyrrolidine-2-carboxamide] |
| > 80% | O=C1CCC(N2C(=O)c3cccc(NCCOCCOCCOCCOCCC(=O)N4CCN(c5cccc(-c6cnc7ccc(N8CCC[C@@H]8c8cccc(F)c8)nn67)n5)CC4)c3C2=O)C(=O)N1 (stereo partly drawn) [CPD-021, 2-(2,6-Dioxopiperidin-3-yl)-4-((15-(4-(6-(6-((R)-2-(3-fluorophenyl)pyrrolidin-1-yl)imidazo[1,2-b]pyridazin-3-yl)pyridin-2-yl)piperazin-1-yl)-15-oxo-3,6,9,12-tetraoxapentadecyl)amino) isoindoline-1,3-dione] |
| 50 to 80% | Cc1ncsc1-c1ccc(CNC(=O)[C@@H]2C[C@@H](O)CN2C(=O)[C@@H](NC(=O)CCCCCCCCCC(=O)N2CCN(c3cccc(-c4cnc5ccc(N6CCC[C@@H]6c6cccc(F)c6)nn45)n3)CC2)C(C)(C)C)cc1 [CPD-022, (25,4R)-1-((S)-2-(11-(4-(6-(6-((R)-2-(3-Fluorophenyl)pyrrolidin-1-yl)imidazo[1,2-b]pyridazin-3-yl)pyridin-2-yl)piperazin-1-yl)-11-oxoundecanamido)-3,3-dimethylbutanoyl)-4-hydroxy-N-(4-(4-methylthiazol-5-yl)benzyl)pyrrolidine-2-carboxamide] |
